Drawing on PubChem BioAssay AID1963843 (Molecular Pharmacology Branch, DTP, NCI, 2024), this text covers viability, T/C and IC50 for ten compounds.

The experiment deals with 616215-338-R-J1-PDC complex spheroid viability. Kind of experiment: Anticancer human tumor 616215-338-R-J1-PDC patient-derived colon adenocarcinoma cell line growth inhibition [POLQ]. The note with it: for viability, T/C: stronger effect = lower value. The protocol: Multicellular complex tumor spheroid response to Polymerase (POL) inhibitors (novobiocin, ART-558, RP6685) in combination with a variety of drugs and investigational agents in selected tumor cell lines
The POL inhibitors (novobiocin, ART-558, and RP6685) were evaluated both individually and in combination with standard of care and investigational anticancer small molecules within a complex spheroid model of solid tumors. . Complex spheroids include a stromal component modeled by human endothelial cells (HUVEC) and fibroblasts modeled by human mesenchymal stem cells (MSCs). The concentration ranges selected for each drug and investigational agent were based upon clinically achievable concentrations if the clinical Cmax of the agent was known.
Compounds. The drugs and investigational agents: novobiocin (NSC847541), ART-558 (NSC835418), RP-6685 (NSC848927), peposertib (NSC802822), ceralasertib (NSC780249), elimusertib (NSC800525), camonsertib (NSC841442), AZD-1390 (NSC803789), olaparib (NSC753686), talazoparib (NSC767125), rucaparib (NSC756644), sotorasib (NSC818433), MRTX-1133 (NSC836407), SN-38 (NSC673596), topotecan (NSC609699), epotoside (NSC141540), doxorubicin (NSC123127), gemcitabine (NSC613327), 5-fluorouracil (NSC19893), paclitaxel (NSC125973), vemurafenib (NSC761431), MSA-2 (NSC828583), SN-011 (NSC837082), adavosertib (NSC754352), prexasertib (NSC758257), carboplatin (NSC241240) and oxaliplatin (NSC266046), were obtained from the National Cancer Institute (NCI) Developmental Therapeutics Program Chemical Repository (21). The FDA-approved anticancer drug set is available from the Developmental Therapeutics Program at https://dtp.cancer.gov/organization/dscb/obtaining/. […] The stock solutions were prepared in dimethyl sulfoxide (DMSO, Sigma-Aldrich, St. Louis, MO, cat. D2650), except for the platinum compounds which were prepared in saline (Quality Biological, Gaithersburg, MD, cat. 114-055-101), at 800-fold the tested concentration and stored at -70 degrees C prior to their use. All drugs and investigational agents were tested over a range starting from a high concentration at or near the clinical Cmax and decreasing in half-log increments. If the clinical Cmax for an agent had not been determined, the highest concentration tested was 10 microM, except for SN-38, which was tested at a high concentration of 1 microM.
Cell Culture. All cells were maintained in an incubator at 37 degrees C and 5% CO2 with 95% humidity. The PDC lines were cultured according to standard operating procedures established by the NCI PDMR (https://pdmr.cancer.gov). Table 3 of the manuscript, lists the cell lines along with the number of the three cell types plated to form the mct-spheroids and media for tumor cell growth. After thawing, all PDC lines, except 997537-175-T-J1-PDC and 415267-285-R-J2-PDC, were cultured in Matrigel-coated flasks prepared with a working solution of 1X Ham's F-12 nutrient mix, without supplementation (Thermo Fisher Scientific, cat. 11765054), 100 U/mL penicillin-streptomycin (Thermo Fisher Scientific, cat. 15140122), and 2.5% Matrigel (Corning Inc., Corning, NY, cat. 354248) for the first three passages. The two PDC lines 997537-175-T-J1-PDC and 415267-285-R-J2-PDC were cultured on uncoated flasks. The 857933-349-R-J2-PDC line was cultured in 6C/Colon 1B media containing advanced DMEM/F-12 (Thermo Fisher Scientific, cat. 12634028), 10 mM HEPES (Thermo Fisher Scientific, cat. 15630080), 1X GlutaMAX supplement (Thermo Fisher Scientific, cat. 35050061), 0.1 mg/mL primocin (InvivoGen, San Diego, CA, cat. ant-pm-2), 10% defined fetal bovine serum, heat inactivated (HyClone Laboratories Inc., Logan, UT, cat. SH30070.03HI), 50% L-WRN conditioned media (ATCC, cat. CRL-3276), 1.25 mM N-Acetyl-L-cysteine (Sigma-Aldrich, cat. A9165), 10 mM nicotinamide (Sigma-Aldrich, cat. N0636), 1X B-27 supplement (Thermo Fisher Scientific, cat. 17504044), 1X N-2 supplement (Thermo Fisher Scientific, cat. […]

The structures appear in SMILES notation. pIC50: −log10 of the molar value. Values joined by “and” are separate entries in the source; they are usually repeats but may differ in a detail not shown here. Identical values can stand only once. Bounds are passed on as bounds.
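Also: spheroids exposed to compounds for one week before readout.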
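For viability, T/C in this document: percent viability relative to DMSO vehicle wells taken as 100%.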

Usually viability, T/C stands for the result in the treated group divided by that in the control group, in per cent. Usually pIC50 stands for the negative decadic logarithm of the IC50, by convention in mol/L. With `C=CCn1c(=O)c2cnc(Nc3ccc(N4CCN(C)CC4)cc3)nc2n1-c1cccc(C(C)(C)O)n1`, the viability, T/C is 98.4% and 98.6% and 104% (compound 0.00316 µM); 101% and 96.2% and 96.8% (compound 0.01 µM); 105% and 102% and 99.9% (compound 0.0316 µM); 93.8% and 88.6% and 96.6% (compound 0.1 µM); 88.4% and 64% and 54.5% (compound 0.316 µM); 60.4% and 31.4% and 34.6% (compound 1 µM). The pIC50 (curve of compound) is < 6.00 and 6.29 and 6.39.
For `CC(=O)O[C@H]1C(=O)[C@@]2(C)[C@H]([C@H](OC(=O)c3ccccc3)[C@]3(O)C[C@H](OC(=O)[C@H](O)[C@@H](NC(=O)c4ccccc4)c4ccccc4)C(C)=C1C3(C)C)[C@]1(OC(C)=O)CO[C@@H]1C[C@@H]2O`, the viability, T/C is 39.3% and 41.7% and 86.3% (compound 0.00949 µM); 23.3% and 27.1% and 44.5% (compound 0.03 µM); 23.8% and 24.4% and 38.2% (compound 0.0949 µM); 15.6% and 17.9% and 35.5% (compound 0.3 µM); 18% and 18.2% and 36.7% (compound 0.949 µM); 21.7% and 17.8% and 34.3% (compound 3 µM). For the same compound, the pIC50 (curve of compound) was > 8.02 and 7.59.
On to `CC(C)n1c(=O)n(C)c2cnc3cc(F)c(-c4ccc(OCCCN5CCCCC5)nc4)cc3c21`, for which the viability, T/C runs as follows: (compound 0.0316 µM) 112% and 102% and 72.9%; (compound 0.1 µM) 97% and 109% and 75%; (compound 0.316 µM) 106% and 93% and 74.8%; (compound 1 µM) 107% and 94.6% and 79.2%; (compound 3.16 µM) 108% and 101% and 85.2%; (compound 10 µM) 101% and 96% and 72.1%. Further, the pIC50 (curve of compound) was < 5.00.
On to `CC1COCCN1c1cc(-c2ccnn2C)c2ccnc(-c3ccn[nH]3)c2n1` (stereo not drawn), for which the viability, T/C reads like this: (compound 0.0316 µM) 95.3% and 98.7% and 94%; (compound 0.1 µM) 102% and 90.3% and 66%; (compound 0.316 µM) 73.7% and 70.5% and 39.4%; (compound 1 µM) 60.4% and 47.1% and 31.4%; (compound 3.16 µM) 50% and 27.1% and 28.4%; (compound 10 µM) 44.6% and 40.1% and 21.7%.
On to `CC1COCCN1c1cc(C2(S(C)(=N)=O)CC2)nc(-c2ccnc3[nH]ccc23)n1` (stereo not drawn), for which the viability, T/C was 99.9% and 97.9% and 100% (compound 0.0316 µM); 107% and 90.8% and 112% (compound 0.1 µM); 95.8% and 93.9% and 108% (compound 0.316 µM); 99.2% and 99.4% and 95.3% (compound 1 µM); 99% and 74.6% and 107% (compound 3.16 µM); 71.5% and 39.9% and 74.1% (compound 10 µM). The pIC50 (curve of compound) is < 5.00 and 5.14.
With `CCCS(=O)(=O)Nc1ccc(F)c(C(=O)c2c[nH]c3ncc(-c4ccc(Cl)cc4)cc23)c1F`, the viability, T/C is 106% and 102% and 108% (compound 0.0316 µM); 97.4% and 107% (2×) (compound 0.1 µM); 105% and 102% and 97.8% (compound 0.316 µM); 107% and 102% and 95.8% (compound 1 µM); 101% (2×) and 91.2% (compound 3.16 µM); 10.8% and 13.5% and 20.5% (compound 10 µM). For the same compound, the negative logarithm of the IC50 (pIC50) (curve of compound) is 5.22 and 5.21.
Turning to `CC[C@@]1(O)C(=O)OCc2c1cc1n(c2=O)Cc2cc3c(CN(C)C)c(O)ccc3nc2-1`, the viability, T/C (compound 0.000316 µM) was 83.5% and 113% and 93.4%; the viability, T/C (compound 0.001 µM) was 99.2% and 100% and 96.4%; the viability, T/C (compound 0.00316 µM) was 99.6% and 109% and 96.2%; the viability, T/C (compound 0.01 µM) was 97.7% and 101% and 110%; the viability, T/C (compound 0.0316 µM) is 111% and 70.1% and 103%; the viability, T/C (compound 0.1 µM) is 82.6% and 39% and 93.5%. The pIC50 (curve of compound) is < 7.00 and 7.18.
On to `CCc1c2c(nc3ccc(O)cc13)-c1cc3c(c(=O)n1C2)COC(=O)[C@]3(O)CC`, for which the viability, T/C was 96.8% and 81.2% and 106% (compound 0.00316 µM); 92.7% and 44.1% and 89.9% (compound 0.01 µM); 66.5% and 33.8% and 61.6% (compound 0.0316 µM); 51.2% and 26.8% and 51.4% (compound 0.1 µM); 29.8% and 16.6% and 34.1% (compound 0.316 µM); 16.3% and 9.67% and 18% (compound 1 µM).
Take `CNCc1ccc(-c2[nH]c3cc(F)cc4c3c2CCNC4=O)cc1`: the viability, T/C was 92.7% and 108% and 87.4% (compound 0.0316 µM); 99.1% and 101% and 106% (compound 0.1 µM); 102% and 104% and 96.3% (compound 0.316 µM); 96.4% and 106% and 107% (compound 1 µM); 103% and 107% and 96.9% (compound 3.16 µM); 90.2% and 26.3% and 83.5% (compound 10 µM). The negative-log IC50 (pIC50) (curve of compound) was < 5.00 and 5.15.
On to `COC1C(OC(N)=O)C(O)C(Oc2ccc3c(O)c(NC(=O)c4ccc(O)c(CC=C(C)C)c4)c(=O)oc3c2C)OC1(C)C` (stereo not drawn), for which the viability, T/C was 101% [middle of 13 runs] (compound 0.0316 µM); 102% [middle of 12 runs] (compound 0.1 µM); 103% [middle of 13 runs] (compound 0.316 µM); 99.2% [middle of 13 runs] (compound 1 µM); 101% [middle of 13 runs] (compound 3.16 µM); 100% [middle of 13 runs] (compound 10 µM). Where the note is “compound alone, run of 11/27/2023”, the negative logarithm of the IC50 (pIC50) was < 5.00.
